Values after ≈ are worked out from the molar mass of the structure shown. Where two headings read alike, the source gives them in different places.
Legend:
[1] = test system: Candida albicans; experiment: Disk diffusion method, fungi (Method/Test A); type: cell-based; details: for zone (Test A, disk diffusion; quantity not given): C. albicans B-311; for zone size: C. albicans
Method: (§1) A. Fungi (Disk diffusion method):
(§2) Candida albicans strains B-311 and BC 759, obtained from Smith Kline and French Laboratory Culture Collection were grown in a trypticase soy broth at 28° for 7 hours. The seeded plates, with this medium containing 1.5% agar, were prepared by inoculating 1 ml of the inoculum in 1 l. of yeast-carbon base medium, containing 200 μg/ml of lysine or glutamate as a sole source of nitrogen.

[2] = test system: C. albicans; experiment: Minimum inhibitory concentration, two-fold broth dilution (Method/Test B); type: cell-based, Candida albicans
Method: (§3) B. Fungi [Minimum inhibitory […] (MIC)]:
(§4) The minimum inhibitory concentration of the test compound was determined by two-fold broth dilution tests in yeast carbon base medium, containing 200 μg/ml of sodium glutamate. The compounds were diluted from […] to 0.25 μg/ml and the test medium was inoculated with a suspension of C. albicans grown in the same medium for 15 hours at 37°. The final inoculum sizes in the tests we approximately 10^4 cfu/ml and 10^3 cfu/ml. The tubes were incubated at 37° for 24 and 48 hours and observed for inhibition.

[3] = test system: E. coli M. 2626; experiment: Disk diffusion method, bacteria (Method C); type: cell-based; details: Escherichia coli
From the text: C. Bacteria (Disk diffusion method): A method similar to A above but using E. coli was used which employs a M-9 medium (basic salts with ammonium ion as the nitrogen source and glucose as the carbon source).

[4] = test system: representative fungal and bacterial organisms; experiment: Biological screen described in the utility example; type: cell-based; details: product found to be not completely deblocked
Method: A prototypal compound, L-alanyl-2-(5-fluorouracil-2-yl)-L-glycine, was evaluated against representative fungal and bacterial organisms.
as §1, §2, §3, §4
C. Bacteria (Disk diffusion method):
A method similar to A above but using E. coli was used which employs a M-9 medium (basic salts with ammonium ion as the nitrogen source and glucose as the carbon source).

[5] = target: aminopeptidase M (Homo sapiens, UniProt P15144); experiment: Detector peptide as enzyme substrate, aminopeptidase M; type: biochemical
From the text: (§5) The compounds of formula I or IA in which W is a C1-6 -alkylthio, a functionalized C1-6 -alkylthio for example a C1-6 -aminoalkylthio or a phenylthio as defined above by formula II are of particular utility for detecting protease/peptidase activity in biological systems. For example, the compounds are more sensitive chromogenic detectors of protease activity in biological liquids, such as serum, than is leucine p-nitroanilide. This utility depends on the release, by protease action, of the mercaptan, H-S-R^2, which is assayed quantitatively by colorimetry using Ellman's reagent as described in the examples.

[6] = target: leucine aminopeptidase (Sus scrofa, UniProt P28839); experiment: Detector peptide as enzyme substrate, leucine aminopeptidase; type: biochemical
From the text: as §5

[7] = test system: hog kidney leucine aminopeptidase; experiment: Enzyme catalyzed warhead release (Ellman reagent, 412 nm); type: biochemical; details: pH 7.5
[8] = test system: hog kidney leucine aminopeptidase; experiment: as above; type: biochemical; details: for λ(412) absorbance: enzyme added
Method: (§6) The release was maintained at a linear rate over the observation period (5 min). […] This observation is consistent with literature reports of the optimal pH necessary for the efficacy of this enzyme.
(§7) These observations were obtained by colorimetric assay, which involves the reaction between a free sulfhydryl group and 5,5'-dithio-bis(2-nitrobenzoic acid), the Ellman reagent, to produce a yellow color as follows: [drawing 12]
(§8) The peptide from Example 4 was dissolved in 4 mM of phosphate buffer solution (pH 7) containing in Ellman reagent at a level of 4 mg/ml to produce a 1 mM solution of the peptide. The resulting mixture was monitored using a spectrophotometer at a wavelength of 412 nm. To 1 ml of this solution was added 100 μg of hog kidney leucine aminopeptidase (Sigma) and the enzymatic hydrolysis was continuously monitored at 412 nm.
(§9) Reaction mixture contained 1 mM peptide, Ellman's reagent 4 mg/ml, phosphate buffer 4 mM (pH 7).

[9] = Stability in aqueous phosphate buffer, spontaneous warhead release (Ellman reagent, 412 nm); type: physicochemical; details: for λ(412) absorbance: before enzyme
Method: as §6, §7, §8, §9

[10] = test system: Fasciola hepatica; details: mice, subcutaneously 15 mg/kg for eight days; compared with albendazole
[11] = test system: Nematospiroides dubius; details: mice, subcutaneously 15 mg/kg for eight days; compared with albendazole
[12] = test system: Caenorhabditis elegans; details: concentrations of 10 and 100 μg/ml
[13] = target: T1, trypsin (Bos taurus, UniProt P00760); experiment: Detector peptide as enzyme substrate, trypsin; type: biochemical
T1 construct: gene PRSS1
T1 sequence (P00760 24-246): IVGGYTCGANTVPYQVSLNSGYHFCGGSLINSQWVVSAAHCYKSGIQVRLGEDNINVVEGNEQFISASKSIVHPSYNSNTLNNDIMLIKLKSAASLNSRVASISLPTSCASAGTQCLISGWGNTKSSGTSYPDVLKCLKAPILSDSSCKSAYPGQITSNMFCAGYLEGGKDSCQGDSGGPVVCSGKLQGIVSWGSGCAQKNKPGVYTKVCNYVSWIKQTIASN
From the text: as §5

Sequence of aminopeptidase M (P15144 whole entry, species assumed): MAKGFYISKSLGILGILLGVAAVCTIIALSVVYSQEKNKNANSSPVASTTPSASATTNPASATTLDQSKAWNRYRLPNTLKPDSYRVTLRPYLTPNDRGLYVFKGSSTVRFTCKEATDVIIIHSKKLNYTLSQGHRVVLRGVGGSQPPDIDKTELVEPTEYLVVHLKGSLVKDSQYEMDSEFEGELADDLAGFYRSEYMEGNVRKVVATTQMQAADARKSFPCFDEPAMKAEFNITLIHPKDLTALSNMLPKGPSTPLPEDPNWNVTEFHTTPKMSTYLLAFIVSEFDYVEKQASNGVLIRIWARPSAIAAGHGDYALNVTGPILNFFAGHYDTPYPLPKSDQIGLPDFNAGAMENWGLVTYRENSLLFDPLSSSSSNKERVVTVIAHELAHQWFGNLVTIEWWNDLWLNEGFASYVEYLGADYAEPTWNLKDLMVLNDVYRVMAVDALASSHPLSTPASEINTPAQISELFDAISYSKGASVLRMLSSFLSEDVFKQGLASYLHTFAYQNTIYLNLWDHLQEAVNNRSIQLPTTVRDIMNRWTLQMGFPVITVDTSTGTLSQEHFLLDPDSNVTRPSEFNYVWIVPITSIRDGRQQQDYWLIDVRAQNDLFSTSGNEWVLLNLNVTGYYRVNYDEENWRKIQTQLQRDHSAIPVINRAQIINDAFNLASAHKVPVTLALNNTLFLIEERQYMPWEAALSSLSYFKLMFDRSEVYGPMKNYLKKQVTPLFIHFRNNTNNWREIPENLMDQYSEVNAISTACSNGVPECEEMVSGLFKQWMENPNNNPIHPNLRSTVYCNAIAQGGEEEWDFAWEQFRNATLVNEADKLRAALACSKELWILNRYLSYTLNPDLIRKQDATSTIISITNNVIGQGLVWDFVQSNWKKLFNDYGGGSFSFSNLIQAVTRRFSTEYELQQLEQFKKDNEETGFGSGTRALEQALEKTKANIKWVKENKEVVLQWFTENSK
Sequence of leucine aminopeptidase (P28839 whole entry): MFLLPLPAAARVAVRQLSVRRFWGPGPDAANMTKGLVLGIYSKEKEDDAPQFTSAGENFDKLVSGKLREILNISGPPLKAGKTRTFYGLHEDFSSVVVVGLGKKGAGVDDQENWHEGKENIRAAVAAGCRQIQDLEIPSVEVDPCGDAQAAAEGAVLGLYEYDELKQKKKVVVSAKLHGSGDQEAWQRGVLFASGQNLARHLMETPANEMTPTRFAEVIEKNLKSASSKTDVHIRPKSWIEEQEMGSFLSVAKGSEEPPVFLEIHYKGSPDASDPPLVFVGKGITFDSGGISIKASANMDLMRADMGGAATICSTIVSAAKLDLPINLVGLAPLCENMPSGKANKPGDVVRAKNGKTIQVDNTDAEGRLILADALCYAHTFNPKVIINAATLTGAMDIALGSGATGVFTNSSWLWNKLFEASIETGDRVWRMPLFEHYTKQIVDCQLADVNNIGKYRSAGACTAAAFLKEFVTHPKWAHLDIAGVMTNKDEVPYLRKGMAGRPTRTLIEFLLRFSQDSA

C[C@H](N)C(=O)NC(C(=O)O)n1cc(F)c(=O)[nH]c1=O (mixture of isomers) [Example 2, L-alanyl-2-(5-fluorouracil-1-yl)-D,L-glycine]
zone (Test A, disk diffusion; quantity not given) ([1]; Conc. 1.5 μg/desk, listed as L-DL): 12 mm | zone (Test A, disk diffusion; quantity not given) ([1]; Conc. 3.0 μg/desk, listed as L-DL): 18 mm | zone (Test A, disk diffusion; quantity not given) ([1]; Conc. 6.0 μg/desk, listed as L-DL): 20 mm | zone (Test A, disk diffusion; quantity not given) ([1]; Conc. 12.5 μg/desk, listed as L-DL): 20 mm | zone (Test A, disk diffusion; quantity not given) ([1]; Conc. 25 μg/desk, listed as L-DL): 20 mm | MIC ([2]; C. albicans strain 3153A, listed as L-DL): 25 µg/mL | MIC ([2]; C. albicans strain B 311, listed as L-DL): 25 µg/mL | MIC ([2]; C. albicans strain BC 759, listed as L-DL): 6.3 µg/mL

O=c1[nH]cc(F)c(=O)[nH]1 [Example 5-FU, 5-fluorouracil, reference compound]
zone (Test A, disk diffusion; quantity not given) ([1]; Conc. 1.5 μg/desk): 22 mm | zone (Test A, disk diffusion; quantity not given) ([1]; Conc. 3.0 μg/desk): 30 mm | zone (Test A, disk diffusion; quantity not given) ([1]; Conc. 6.0 μg/desk): 30 mm | zone (Test A, disk diffusion; quantity not given) ([1]; Conc. 12.5 μg/desk): 40 mm | zone (Test A, disk diffusion; quantity not given) ([1]; Conc. 25 μg/desk): 44 mm | MIC ([2]; Candida albicans, C. albicans strain 3153A, read-out: MIC): 1 µg/mL (≈ 7.69 µM) | MIC ([2]; Candida albicans, C. albicans strain B 311, read-out: MIC): 4 µg/mL (≈ 30.8 µM) | MIC ([2]; Candida albicans, C. albicans strain BC 759, read-out: MIC): 1 µg/mL (≈ 7.69 µM) | zone of inhibition at 1.5 µg/disc ([3]; conc. 1.5 μg/disk): 33 mm | zone of inhibition at 3 µg/disc ([3]; conc. 3.0 μg/disk): 38 mm | zone of inhibition at 6 µg/disc ([3]; conc. 6.0 μg/disk): 40 mm | zone of inhibition at 12.5 µg/disc ([3]; conc. 12.5 μg/disk): 41 mm | zone of inhibition at 25 µg/disc ([3]; conc. 25.0 μg/disk): 46 mm

C[C@H](N)C(=O)NC(NNS(=O)(=O)c1cc(C(=O)O)cc(C(=O)O)c1)C(=O)O (stereo partly drawn) [Example 12, L-alanyl-2-(3,5-dicarboxy-phenylsulfohydrazino)-D,L-glycine]
activity in the biological screen [4]: not active

C[C@H](N)C(=O)NC(C(=O)O)n1cc(F)c(=O)[nH]c1=O (stereo partly drawn) [L-alanyl-2-(5-fluorouracil-1-yl)-D-glycine]
zone (Test A, disk diffusion; quantity not given) ([1]; Conc. 1.5 μg/desk, listed as L,D): 0 mm | zone (Test A, disk diffusion; quantity not given) ([1]; Conc. 3.0 μg/desk, listed as L,D): 0 mm | zone (Test A, disk diffusion; quantity not given) ([1]; Conc. 6.0 μg/desk, listed as L,D): 0 mm | zone (Test A, disk diffusion; quantity not given) ([1]; Conc. 12.5 μg/desk, listed as L,D): 0 mm | zone (Test A, disk diffusion; quantity not given) ([1]; Conc. 25 μg/desk, listed as L,D): 0 mm | zone size ([1]; 62 μg/ml): 0 mm | zone size ([1]; 125 μg/ml): 0 mm | zone size ([1]; 250 μg/ml): 0 mm | zone size ([1]; 500 μg/ml): 0 mm | zone size ([1]; 1000 μg/ml): 0 mm | MIC ([2]; C. albicans B-310, 24 hours): > 200 µg/mL | MIC ([2]; C. albicans strain 3153A, listed as L-D): > 100 µg/mL | MIC ([2]; C. albicans strain B 311, listed as L-D): > 100 µg/mL | MIC ([2]; C. albicans strain BC 759, listed as L-D): > 100 µg/mL

C[C@H](N)C(=O)N[C@H](C(=O)O)n1cc(F)c(=O)[nH]c1=O [L-alanyl-2-(5-fluorouracil-1-yl)-L-glycine]
zone (Test A, disk diffusion; quantity not given) ([1]; Conc. 1.5 μg/desk): 16 mm | zone (Test A, disk diffusion; quantity not given) ([1]; Conc. 3.0 μg/desk): 20 mm | zone (Test A, disk diffusion; quantity not given) ([1]; Conc. 6.0 μg/desk): 22 mm | zone (Test A, disk diffusion; quantity not given) ([1]; Conc. 12.5 μg/desk): 26 mm | zone (Test A, disk diffusion; quantity not given) ([1]; Conc. 25 μg/desk): 30 mm | zone size ([1]; 62 μg/ml): 16 mm | zone size ([1]; 125 μg/ml): 20 mm | zone size ([1]; 250 μg/ml): 22 mm | zone size ([1]; 500 μg/ml): 26 mm | zone size ([1]; 1000 μg/ml): 30 mm | MIC ([2]; C. albicans B-310, 24 hours): 12.5 µg/mL (≈ 45.6 µM) | MIC ([2]; C. albicans strain 3153A): 12.5 µg/mL (≈ 45.6 µM) | MIC ([2]; C. albicans strain B 311): 12.5 µg/mL (≈ 45.6 µM) | MIC ([2]; C. albicans strain BC 759): 1.6 µg/mL (≈ 5.83 µM)

C[C@H](N)C(=O)NC(Sc1ccccc1)C(=O)O (stereo partly drawn) [L-alanyl-L-(α-phenylthio)glycine]
use as enzyme substrate [5]: successfully used as enzyme substrates | use as enzyme substrate [6]: successfully used as enzyme substrates

L-alanyl-2-(2,6-dicarboxy-pyridyl-4-)-ethylthio-D,L-glycine [Example 4]
enzymatically catalyzed release rate relative to pH 7.0 [7]: twice the previous rate | Rate plus 100 μg enzyme (warhead release) ([8]; 1 mM peptide, phosphate buffer 4 mM pH 7, 100 μg leucine aminopeptidase): 504 p moles per min | λ(412) absorbance ([8]; Time (sec) 3, 1 mM peptide, phosphate buffer pH 7): 0.109 | λ(412) absorbance ([8]; Time (sec) 4): 0.127 | λ(412) absorbance ([8]; Time (sec) 5): 0.142 | λ(412) absorbance ([8]; Time (sec) 6): 0.161 | λ(412) absorbance ([8]; Time (sec) 7): 0.180 | λ(412) absorbance ([8]; Time (sec) 8): 0.199 | warhead release upon addition of Leucine Aminopeptidase ([8]; phosphate buffer pH 7.0, observation period 5 min): the warhead was released | Spontaneous Rate (warhead release) ([9]; 1 mM peptide, phosphate buffer 4 mM pH 7, no enzyme): 65 p moles per min | t 1/2 (stability) ([9]; 0.2 M phosphate buffer (pH 7.0)): ~ 5000 min | λ(412) absorbance ([9]; Time (sec) 0, 1 mM peptide, Ellman's reagent 4 mg/ml, phosphate buffer 4 mM pH 7): 0.090 | λ(412) absorbance ([9]; Time (sec) 1, 1 mM peptide, phosphate buffer pH 7): 0.093 | λ(412) absorbance ([9]; Time (sec) 2, 1 mM peptide, phosphate buffer pH 7): 0.095 | non-enzymatic warhead release ([9]; pH 7.5, compared with pH 7.0): no noticeable increase

L-alanyl-2-(albendazole)-D,L-glycine [Example 22]
antiparasitic activity [10]: comparable to, or greater than, albendazole | antiparasitic activity [11]: comparable to, or greater than, albendazole | nematostatic activity [12]: nematostatic activity was demonstrated

N-carbobenzoxy-L-alanyl-D,L-2-(3-aminopropylthio)-glycine, benzyl ester [Example 23]
substrate for trypsin [13]: shown to be substrates

Reference: patent US4454065A, “Oligopeptide prodrugs” (SmithKline Beckman Corporation, priority 1983, dated 1984)
